Tests used:
bacteria, yeast and mold = test: Preservative effectiveness test, screening of preservatives (Table 3); assay type: cell-based; details: Table 3 screening
Method: Solutions were prepared containing [Glu^22,25, Leu^23,28,31, Aib29, Lys^26,31]hPTHrP(1-34)NH2 (SEQ ID NO.: 2) 2 mg/ml, acetate buffer 6 mM and water for injection, with various different preservatives added at concentrations recommended for effective antimicrobial activity. Solutions were prepared at room temperature, by dissolution of the various ingredients in water for injection, with stirring over <30 minutes to ensure complete dissolution, Solutions were filtered through 0.2 micron filter and filled into glass vials, to which a rubber stopper was applied and crimped in place to ensure complete closure.
The solution with methylparaben was less acceptable due to precipitation and inactivity immediately after manufacture of the solution. The solutions were then stored for up to 3 months at 25° C., and up to 4.5 months at 5° C. and the preservative effectiveness test repeated. as described in Example 5.

Bacteria; Yeast and mold = test: Anti-microbial effectiveness test, overall result (conformity); assay type: cell-based; details: for preservative effectiveness results for both Bacteria and Yeasts/moulds: immediately after manufacture
[1] = Chemical stability of formulations: (SEQ ID NO.: 2) content (Table 6); assay type: physicochemical; details: formulations of Table 6
Source text: TABLE 6 details the chemical stability of the formulations described in Example 4.

Structure (SMILES)	suitability as preservative for use with SEQ ID NO.: 2 (precipitation and/or inactivity in preservative activity) (bacteria, yeast and mold)	efficacy against Bacteria (Bacteria; Yeast and mold; after 3 and 4.5 months storage)	preservative effectiveness results for both Bacteria and Yeasts/moulds (Bacteria; Yeast and mold)	solution stability, influence of the preservative selected [1]	preservative efficacy for both Bacteria and Yeasts/moulds (Bacteria; Yeast and mold; after 3 and 4.5 months storage)
OCc1ccccc1 [Benzyl Alcohol]	not suitable	not compliant	compliant	–	–
COC(=O)c1ccc(O)cc1 [Methyparaben]	not suitable	–	–	–	–
CC[C@H](C)[C@H](NC(=O)[C@H](CO)NC(=O)[C@H](CCCCN)NC(=O)CNC(=O)[C@H](CCCCN)NC(=O)[C@H](CC(=O)O)NC(=O)[C@H](Cc1cnc[nH]1)NC(=O)[C@H](CC(C)C)NC(=O)[C@H](CC(C)C)NC(=O)[C@H](CCC(N)=O)NC(=O)[C@H](Cc1cnc[nH]1)NC(=O)[C@H](CCC(=O)O)NC(=O)[C@H](CO)NC(=O)[C@@H](NC(=O)[C@H](C)N)C(C)C)C(=O)N[C@@H](CCC(N)=O)C(=O)N[C@@H](CC(=O)O)C(=O)N[C@@H](CC(C)C)C(=O)N[C@@H](CCCNC(=N)N)C(=O)N[C@@H](CCCNC(=N)N)C(=O)N[C@@H](CCCNC(=N)N)C(=O)N[C@@H](CCC(=O)O)C(=O)N[C@@H](CC(C)C)C(=O)N[C@@H](CC(C)C)C(=O)N[C@@H](CCC(=O)O)C(=O)N[C@@H](CCCCN)C(=O)N[C@@H](CC(C)C)C(=O)N[C@@H](CC(C)C)C(=O)NC(C)(C)C(=O)N[C@@H](CCCCN)C(=O)N[C@@H](CC(C)C)C(=O)N[C@@H](Cc1cnc[nH]1)C(=O)N[C@H](C(=O)N[C@@H](C)C(N)=O)[C@@H](C)O [SEQ ID NO.: 2, [Glu^22,25, Leu^23,28,31, Aib^29, Lys^26,30]hPTHrP(1-34)NH2]	–	–	–	not significantly influenced	–
Oc1ccccc1 [Phenol]	–	–	compliant	–	maintained

Source: patent publication US8148333B2, “Stable composition comprising a PTHrP analogue” (priority 2006, dated 2012)
